Measurements from patent US20090054376A1, “BENZOFURAN DERIVATIVES WITH THERAPEUTIC ACTIVITIES” (Pharmos Corporation, priority 2005, published 2009).
Entries after “also recorded” stand apart in the source; their conditions may differ. Read-outs that look alike come from different tables or passages of the source.

Key:
[1] = test system: carrageenan induced inflammatory pain and paw edema; test: Inflammatory pain and paw edema induced by carrageenan; type: in vivo, Male Sprague Dawley rats; conditions: 10 mg/kg i.p.; for inhibition in vivo at 10 mg/kg: Rattus norvegicus, ip
Procedure, shortened: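 Male Sprague Dawley rats (~200 g) received 0.1 ml 2% λ-carrageenan subplantar in the right paw; compounds given i.p. at 3, 10 or 20 mg/kg (some p.o.) immediately after. Thermal (Hargreaves) latency, mechanical threshold, paw thickness and volume measured at 0 and 3 h; values are inter-paw differences ([…], ΔForce), volume as % of vehicle.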

[2] = test system: visceral pain writhing responses; test: Visceral pain, acetic acid induced writhing responses; type: in vivo, Male ICR mice; conditions: single dose 2 mg/kg i.v., compared to untreated group
IL-1β = test: Cytokine secretion into blood circulation in LPS injected mice, IL-1β; type: in vivo, Balb/C female mice; conditions: 2 mg/kg i.v., LPS 3 mg/kg i.p., plasma 90 minutes after LPS
Description: (§1) Balb/C female mice (average body weight 20 g, Harlan, Israel) were injected i.v. at a volume dosage of 5 ml/kg with either vehicle or test compounds at a dose of 2 mg/kg. Each treatment group comprised at least 9 animals. Immediately after compound or control administration, the mice were injected i.p. with 3 mg/kg LPS (E. coli 055:B5, Calbiochem). Ninety minutes after LPS induction, blood samples were collected into heparanized test tubes. Plasma was separated by centrifugation (10,000 rpm for 5 minutes at RT) and stored at −20° C. until assayed. The level of the inflammatory mediator under study, IL-1β, IL-6, IL-10 or TNF-α, was assayed by ELISA techniques.
(§2) The technique used to quantify the amount of a given protein in a liquid sample, either tissue culture supernatant or body fluid, is based on Enzyme Linked ImmunoSorbent Assay (ELISA) methodology. Either commercially available or established in house, the assay is based on the capture of the protein of interest by specific antibodies bound to the bottom of an ELISA plate well. Unbound material is washed away, the captured protein is then exposed to a secondary antibody generally labeled with horseradish peroxidase (HRP) or alkaline phosphatase (ALP). Again the unbound material is washed away, and the samples are then incubated with the appropriate substrate yielding a colorimetric reaction. The reaction is stopped and reading is performed in a spectrophotometer at the appropriate wavelength. Samples are tested at least in duplicate and the appropriate standard curve, consisting of serial dilutions of the recombinant target protein, is incorporated on each plate. The concentration of the protein in the sample is calculated from the standard curve.
(§3) The results are expressed as percent inhibition of secretion, taking into account the maximal cytokine concentration in vehicle “treated” animals and the baseline level in naïve animals. […] Inhibition above 50% was considered highly significant.

[3] = test system: CB1 related cannabimimetic activity; test: Safety: body temperature, catalepsy, spontaneous locomotor activity, elevated plus maze, sensitivity to touch; type: in vivo, ICR male mice; conditions: 2 mg/kg i.v.
Description: In the present study, impact of compounds of the invention on the central nervous system was measured by monitoring the body temperature, catalepsy and spontaneous locomotor activity of rodents. These activities are part of the Tetrad assays which are indicative, if all parameters are affected, of CB1 mediated activity. In addition, lack of CNS psychomimetic effect was assessed in the elevated plus maze model. Finally, sensitivity to touch was determined in order to evaluate peripheral CB1 related activity.
ICR male mice (average body weight 25 g, Harlan, Israel) were administered the compounds of the invention i.v. at a dose of 2 mg/kg and at a volume dose of 5 ml/kg. The psychoactive cannabinoid HU-210 was used as positive control at the 100-fold lower dose of 0.02 mg/kg i.v. The following measurements were made starting 15 minutes after compound administration. All tests were completed for each animal within approximately 10 minutes. Rectal temperature was monitored using a thermistor probe (YSI model 400, USA). Spontaneous locomotion was assessed using the open field methodology. The number of squares crossed by the animals were recorded and analyzed during a period of three minutes. At the end of the open field test, the animals were tested for catalepsy symptoms. This was carried out by gently forcing the animal to stand on its hind paws when its front paws are holding on an elevated beam. The time for the animal to step down of the beam was measured in seconds. A normal animal withdraws the beam immediately whereas cataleptic animal tend to stay on the beam. The longer the animal stays leaning on the beam, the more cataleptic the animal is. The behavior of the animals was then assessed in the elevated plus maze. The elevated plus maze consists of two open arms and two arms that are enclosed by high walls (arms 30×10 cm, wall height 20 cm). The elevated plus maze is usually elevated 80 cm above the floor. The mouse is placed on the maze head facing an open arm, and the time spent in the different compartments of the maze (open arms, closed arms and central area) are measured for the next 5 minutes. Results are expressed as percent of the time spent in the open arms, normal animals preferring to stay in the closed arms of the maze. Finally, animals were gently touched by an observer blinded for the treatment group and their sensitivity scored according to the following scale: 0 not sensitive, 1 sensitive and 2 highly sensitive. Results are expressed as average±SEM. At the end of the study, the animals were euthanized.

IL-10 = test: Cytokine secretion into blood circulation in LPS injected mice, IL-10; type: in vivo, Balb/C female mice; conditions: 2 mg/kg i.v., LPS 3 mg/kg i.p., plasma 90 minutes after LPS
Description: as §1, §2, §3

TNF-α = test: Cytokine secretion into blood circulation in LPS injected mice, TNF-α; type: in vivo, Balb/C female mice; conditions: 2 mg/kg i.v., LPS 3 mg/kg i.p., plasma 90 minutes after LPS
Description: as §1, §2, §3

IL-6 = test: Cytokine secretion into blood circulation in LPS injected mice, IL-6; type: in vivo, Balb/C female mice; conditions: 2 mg/kg i.v., LPS 3 mg/kg i.p., plasma 90 minutes after LPS
Description: as §1, §2, §3

[4] = test system: pentobarbital-induced sleep; conditions: 10 mg/kg i.v.; cited from earlier work
[5] = 10 mg/kg i.v.; cited from earlier work
[6] = test system: visceral pain writhing responses; test: Tolerance: repeated administration in the model of Visceral Pain; type: in vivo, mice; conditions: tested day 11 at 2 mg/kg i.v.
Description: Male ICR mice (average body weight 25 g, Harlan, Israel) were pretreated by i.v. injection at volume dose of 5 ml/kg of vehicle, control and test compounds at various doses. Other routes of administration were tested for selected compounds including i.m. or s.c. injections at volume dose of 2.5 ml/kg and p.o. gavage at volume dose of 5 ml/kg. Compounds were dissolved in CREMOPHOR®:Ethanol and diluted 1:20 in saline prior to injection or gavage. Compounds administered i.v. were injected fifteen minutes before pain induction, whereas compounds administered i.m., s.c. or p.o. were supplied thirty minutes before pain induction, unless otherwise indicated. Each treatment group, except for controls comprising at least 30 animals, was composed of at least 6 animals. Fifteen or thirty minutes after drug administration, depending on the route of administration, the mice were injected i.p. with 10 ml/kg of 0.6% acetic acid and the number of visceral pain related behaviors (writhing movements globally defined as WR, i.e. stretching, contractions of the abdomen accompanied by an elongation of the body and extension of the hind limbs) was counted over a period of 5 minutes, starting 5 minutes after the acetic acid administration. These visceral pain related behaviors were globally defined as writhing responses (WR). The results are expressed as mean number of writhing responses ±SEM. Data were analyzed using analysis of variance (ANOVA) followed by post-hoc Fisher test.
Briefly compounds of the invention were administered at 10 mg/kg i.p. daily for 10 days and their analgesic activity was tested on day 11 as described in Example 17 (namely at 2 mg/kg i.v.). […] Each treatment group comprised 10 animals.

CCCCCCC(C)(C)c1cc(O)c2c(c1)OC1CCCCCC21 (stereo not drawn) [Compound C7S-1, 2-(1,1-dimethylheptyl)-5,6,7,8,9,9a-hexahydro-4bH-10-oxa-benzo[α]azulen-4-ol]
Percent Inhibition of Inflammatory Pain Responses, Edema ([1]; 3 hours after carrageenan, reduction in paw swelling): 60%
Percent Inhibition of Inflammatory Pain Responses, ΔForce ([1]; 3 hours, mechanical stimulus): 13%
Percent Inhibition of Inflammatory Pain Responses, ΔLT ([1]; 3 hours, thermal stimulus): 0%
Percent Inhibition of Visceral Pain Writhing Responses [2]: 76%
Inhibition of cytokine secretion into blood circulation, IL-1β (IL-1β): NO (NO indicates that the compound tested did not significantly affect the level of cytokine in plasma of LPS injected mice and that its activity is comparable to vehicle, within ±20% from this control)
adverse cannabimimetic activities in any of the parameters monitored [3]: None
decrease of rectal temperature ([3]; non-significant): about 1.2 °C
rectal temperature ([3]; vehicle 38.88±0.11° C.): 37.45±0.39 °C
Inhibition of cytokine secretion into blood circulation, IL-10 (IL-10): 82%
Inhibition of cytokine secretion into blood circulation, TNF-α (TNF-α): NO (NO indicates that the compound tested did not significantly affect the level of cytokine in plasma of LPS injected mice and that its activity is comparable to vehicle, within ±20% from this control)
Inhibition of cytokine secretion into blood circulation, IL-6 (IL-6): 82%

CCCCCCC(C)(C)c1cc(O)c2c(c1)OC1C(O)CCCC21 (stereo not shown) [Compound C6S-5, 3-(1,1-Dimethylheptyl)-5a,6,7,8,9,9a-hexahydro-dibenzofuran-1,6-diol]
inhibition in vivo at 10 mg/kg ([1]; 3 hours after carrageenan, reduction in paw swelling, read-out: Percent Inhibition of Inflammatory Pain Responses, Edema): 56%
inhibition in vivo at 10 mg/kg ([1]; 3 hours, mechanical stimulus, read-out: Percent Inhibition of Inflammatory Pain Responses, ΔForce): 34%
inhibition in vivo at 10 mg/kg ([1]; 3 hours, thermal stimulus, read-out: Percent Inhibition of Inflammatory Pain Responses, ΔLT): 61%
inhibition in vivo at 2 mg/kg ([2]; Mus musculus, iv, read-out: Percent Inhibition of Visceral Pain Writhing Responses): 35%
Inhibition of cytokine secretion into blood circulation, IL-1β (IL-1β): NO (NO indicates that the compound tested did not significantly affect the level of cytokine in plasma of LPS injected mice and that its activity is comparable to vehicle, within ±20% from this control)
adverse cannabimimetic activities in any of the parameters monitored [3]: None
Inhibition of cytokine secretion into blood circulation, IL-10 (IL-10): 84%
Inhibition of cytokine secretion into blood circulation, TNF-α (TNF-α): NO (NO indicates that the compound tested did not significantly affect the level of cytokine in plasma of LPS injected mice and that its activity is comparable to vehicle, within ±20% from this control)
Inhibition of cytokine secretion into blood circulation, IL-6 (IL-6): 85%

C=C(C)[C@@H]1CC[C@](C)(O)[C@H]2Oc3cc(CCCCC)cc(O)c3[C@@H]12 [CBE]
prolongation of pentobarbital-induced sleep [4]: nor does it prolong pentobarbital-induced sleep
effect on body temperature of mice [5]: does not affect body temperature of mice

CN1CC[C@]23c4c5ccc(O)c4O[C@H]2[C@@H](O)C=C[C@H]3[C@H]1C5 [morphine, reference compound]
Percent Inhibition of Visceral Pain Writhing Responses ([2]; 2 mg/kg): eradicated the pain response; also recorded: totally eliminated the pain response
writhing responses on day 11 ([6]; repeated administration daily for 10 days (10 mg/kg i.p.), vehicle 29.75±1.09): 9.60±2.85
reduction in pain response after repeated administration ([6]; repeated administration daily for 10 days): 68%
